Assay results taken from patent publication US6900193B1, “Structural modification of 19-norprogesterone I: 17-α-substituted-11-β-substituted-4-aryl and 21-substituted 19-norpregnadienedione as new antiprogestational agents” (The United States of America as represented by the …, priority 1996, dated 2005).

What was measured:
[1] = system: progesterone-induced endometrial proliferation; test: AntiClauberg test; format: in vivo, rabbit; set-up: key to ANTIPROGESTATIONAL Anti-Clauberg: relative oral potency vs. reference compound set to 100; conditions: oral; for antiClauberg / oral antiprogestational activity, in words: versus the standard 69B; for BIOLOGICAL ACTIVITY antiClauberg: Table 2
Protocol: AntiClauberg Test (Clauberg, C., Zentr. Gynakol., 54:2757-2770 (1930)) Immature female rabbits of the New Zealand White breed (approx. 1 kg body weight) were maintained under standard laboratory conditions and received a subcutaneous injection of 5 μg estradiol in 10% ethanol/sesame oil daily for 6 consecutive days. Twenty-four hours after the last dose of estradiol (day 7) animals received progesterone by subcutaneous injection (0.8 mg/day) and the experimental compound in appropriate vehicle (usually 10% ethanol/sesame oil) orally or subcutaneously for five consecutive days. One group of rabbits received progesterone only. Twenty-four hours after the last dose all animals were sacrificed for removal of the uterus which was cleaned of all fat and connective tissue, weighed to the nearest 0.2 mg and placed in 10% neutral buffered formalin for subsequent histological processing. Five micron sections stained with hematoxylin and eosin (H&E) were evaluated microscopically for the degree of endometrial glandular proliferation according to the method of McPhail (McPhail, supra). The percent inhibition of endometrial proliferation at each dose level of the experimental compound was derived by comparison with the progesterone-stimulated animals alone.

[2] = biological target: T1, progesterone receptor (estrogen-primed rabbit uterus) (Oryctolagus cuniculus, UniProt P06186); test: Relative binding affinity, progesterone receptor; conditions: for BINDING AFFINITY Progester: Table 2; for binding affinities compared with the standard, compound 69B: progesterone receptor implied (rabbit or human isoform A not specified)
T1 construct: preparation of cytosols for the progesterone and glucocorticoid receptor assays; from tissue; host or cells: uterus of estradiol-primed immature female New Zealand White rabbits (cytosol)
T1 sequence (P06186 1-930): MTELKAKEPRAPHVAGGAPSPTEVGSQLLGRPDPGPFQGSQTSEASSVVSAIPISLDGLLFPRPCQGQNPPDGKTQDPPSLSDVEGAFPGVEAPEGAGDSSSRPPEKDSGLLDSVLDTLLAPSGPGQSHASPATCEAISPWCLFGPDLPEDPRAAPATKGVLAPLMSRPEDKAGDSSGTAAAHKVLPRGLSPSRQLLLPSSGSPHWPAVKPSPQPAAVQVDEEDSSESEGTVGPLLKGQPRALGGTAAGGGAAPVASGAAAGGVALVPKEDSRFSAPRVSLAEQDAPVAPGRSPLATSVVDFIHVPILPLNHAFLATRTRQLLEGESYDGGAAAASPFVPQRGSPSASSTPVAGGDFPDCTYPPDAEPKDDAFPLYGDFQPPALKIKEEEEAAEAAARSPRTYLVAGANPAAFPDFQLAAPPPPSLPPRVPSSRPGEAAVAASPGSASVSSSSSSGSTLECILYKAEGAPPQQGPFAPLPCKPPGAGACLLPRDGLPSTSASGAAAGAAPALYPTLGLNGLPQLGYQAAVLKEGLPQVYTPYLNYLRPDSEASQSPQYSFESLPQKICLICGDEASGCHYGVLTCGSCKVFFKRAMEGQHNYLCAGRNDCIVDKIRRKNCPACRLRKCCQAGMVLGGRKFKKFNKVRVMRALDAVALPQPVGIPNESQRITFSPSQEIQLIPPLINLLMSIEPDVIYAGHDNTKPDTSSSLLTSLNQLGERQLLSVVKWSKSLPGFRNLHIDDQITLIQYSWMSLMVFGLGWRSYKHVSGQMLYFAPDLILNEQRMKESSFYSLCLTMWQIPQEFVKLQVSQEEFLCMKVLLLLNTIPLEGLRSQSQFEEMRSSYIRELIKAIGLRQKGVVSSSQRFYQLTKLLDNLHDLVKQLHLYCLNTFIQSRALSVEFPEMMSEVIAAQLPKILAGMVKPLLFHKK
Protocol: (§1) Relative Binding Affinities for the Progesterone and Glucocorticoid Receptors
(§2) Uteri and thymus glands were obtained from estradiol-primed immature female rabbits of the New Zealand White strain for preparation of cytosols for the progesterone and glucocorticoid receptor assays, respectively. Tissues were excised and immediately placed in ice cold TEGDM buffer (10 mM Tris, pH 7.4; 1.5 mM EDTA; 10% glycerol vol/vol/; 1 mM dithiothreitol [DTT]; and 20 mM sodium molybdate). The tissues were dissected free of connective tissue and fat, weighed and minced finely. Minced tissues were homogenized in 3 volumes TEGDM/gm with four 10 second bursts of a VirTis Cyclone set at half maximum speed with a 30 second cooling period (in ice) between bursts. Homogenates were centrifuged at 109,663 g at 4° C. for 1 hour to yield the soluble cytosol fiction. Aliquots of cytosol were snap frozen and stored at −75° C.
(§3) All binding assays were carried out at 2-6° C. for 16-18 hours. The following radioactive ligands were used: [1,2-^3H(N)]-progesterone (50.0 Ci/mmole) for the progesterone receptor (PR). […] For the progesterone receptor RBA assays 0.02 ml uterine cytosol or TEDGM buffer, 0.05 ml of various concentrations of test compounds or progesterone, 0.13 ml TEGDM buffer and 0.05 ml [^3H]-progesterone were added to duplicate tubes. For the glucocorticoid receptor RBA assays 0.1 ml thymus cytosol or TEDGM buffer, 0.05 ml of various concentrations of test compounds or dexamethasone, 0.05 ml TEGDM buffer and 0.05 ml [3H]-dexamethasone were added to duplicate tubes. For the estrogen receptor RBA assays 0.05 ml uterine cytosol, 0.1 ml TEGDM buffer, 0.05 ml of various concentrations of test compounds or estradiol and 0.05 ml [^3H]-estradiol were added to duplicate tubes. The concentrations of the test compounds, progesterone, dexamethasone and estradiol ranged from 0.05 to 100 nM and the concentrations of the competitors ranged from 0.5 to 500 nM. Total binding was measured at radioligand concentrations of 3.5 nM and nonspecific binding was measured in the presence of a 200-fold excess of unlabeled progesterone (PR), dexamethasone (GR) or diethylstilbestrol (ER), respectively.
(§4) In all incubations bound and free ligand were separated using dextra-coated charcoal (DCC). A 0.1 ml aliquot of DCC (0.5% charcoal/0.05% Dextran T-70) was added to each tube. The tubes were vortexed and incubated on ice for 10 minutes. Five-tenths ml TEG buffer (without DTT or molybdate) was then added to all tubes to improve supernatant recovery following centrifugation. The charcoal was pelleted by centrifugation at 2,100 g for 15 minutes at 4° C. The supernatants containing the [^3H]-steroid receptor complexes were decanted into vials containing 4 ml Optifluor (Packard Instrument Co.), vortexed, equilibrated in a liquid scintillation counter for 30 minutes and then counted for 2 minutes. This provided the quantity of receptor bound [^3H]-steroid at each competitor concentration.

[3] = biological target: T2, glucocorticoid receptor (estrogen-primed rabbit thymus) (Oryctolagus cuniculus, UniProt P59667); test: Relative binding affinity, glucocorticoid receptor; conditions: for BINDING AFFINITY Glucocortic: Table 2
T2 construct: preparation of cytosols for the progesterone and glucocorticoid receptor assays; from tissue; host or cells: thymus of estradiol-primed immature female New Zealand White rabbits (cytosol)
T2 sequence (P59667 1-772): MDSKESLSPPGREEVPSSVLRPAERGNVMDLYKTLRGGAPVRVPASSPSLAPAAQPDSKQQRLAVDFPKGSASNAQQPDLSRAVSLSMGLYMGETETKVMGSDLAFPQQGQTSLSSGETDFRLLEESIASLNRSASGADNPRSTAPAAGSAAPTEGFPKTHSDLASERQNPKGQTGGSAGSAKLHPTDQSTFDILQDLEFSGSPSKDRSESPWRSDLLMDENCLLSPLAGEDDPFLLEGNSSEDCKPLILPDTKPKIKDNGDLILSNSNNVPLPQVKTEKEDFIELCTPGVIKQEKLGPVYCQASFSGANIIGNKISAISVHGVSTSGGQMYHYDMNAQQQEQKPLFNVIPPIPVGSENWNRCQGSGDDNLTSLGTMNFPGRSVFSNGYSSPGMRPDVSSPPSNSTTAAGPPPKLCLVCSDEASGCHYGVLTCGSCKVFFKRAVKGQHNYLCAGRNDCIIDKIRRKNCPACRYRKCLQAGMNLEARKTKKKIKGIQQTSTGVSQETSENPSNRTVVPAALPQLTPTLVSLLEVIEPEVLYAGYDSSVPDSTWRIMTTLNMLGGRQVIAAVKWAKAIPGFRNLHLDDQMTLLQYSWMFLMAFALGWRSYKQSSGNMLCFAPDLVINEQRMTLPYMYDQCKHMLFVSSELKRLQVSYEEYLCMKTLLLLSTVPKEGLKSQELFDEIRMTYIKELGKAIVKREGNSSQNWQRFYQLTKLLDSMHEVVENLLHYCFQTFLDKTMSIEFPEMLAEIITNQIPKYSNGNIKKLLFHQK
Protocol: as §1, §2, §3, §4

[4] = estrogen-primed rabbit uterus, progesterone = 100%
[5] = estrogen-primed rabbit thymus, dexamethasone = 100%

SMILES	ANTIPROGESTATIONAL Anti-Clauberg ([1]; relative potency, CDB-2914 = 100 (assigned))	antiClauberg / oral antiprogestational activity, in words [1]	RELATIVE BINDING AFFINITY Progesterone [2, 4]	RELATIVE BINDING AFFINITY Glucocorticoid [3, 5]	BIOLOGICAL ACTIVITY antiClauberg ([1]; CDB-2914 = 100 (assigned))	BINDING AFFINITY Progester [2, 4]	binding affinities compared with the standard, compound 69B [2]	BINDING AFFINITY Glucocortic [3, 5]	binding affinity for the glucocorticoid receptor, in words ([3]; rabbit thymus, versus CDB-2914 (69B) where stated)
CCOCC(=O)[C@@]1(OC(C)=O)CCC2C3CCC4=CC(=O)CCC4=C3C(c3ccc(N(C)C)cc3)C[C@@]21C (stereo partly drawn) [Compound 46, 17α-acetoxy-21-ethoxy-11β-[4-(N,N-dimethylamino)phenyl]-9-norpregna-4,9-diene-3,20-dione]	130-210	greater activity than the standard	83%	46%	–	–	–	–	–
CC(=O)C1(OC=O)CCC2C3CCC4=CC(=O)CCC4=C3C(c3ccc(N(C)C)cc3)CC21C (stereo not drawn) [Compound 69A, 17α-formyloxy-11β-[4-(N,N-dimethylamino)phenyl]-19-norpregna-4,9-diene-3,20-dione]	–	–	–	–	97	164%	binding affinities greater than that observed for the standard	30%	–
COCC(=O)OCC(=O)[C@@]1(OC(C)=O)CC[C@H]2[C@@H]3CCC4=CC(=O)CCC4=C3[C@@H](c3ccc(N(C)C)cc3)C[C@@]21C [Compound 126b]	–	greater activity than the standard	–	–	125	76%	–	15%	–
COC(=O)OCC(=O)C1(OC(C)=O)CCC2C3CCC4=CC(=O)CCC4=C3C(c3ccc(N(C)C)cc3)CC21C (stereo not drawn) [Compound 126c, 17α-Acetoxy-21-hydroxy-11β-[4-(N,N-dimethylamino)phenyl]-19-norpregna-4,9-diene-3,20-dione-21-methyl carbonate]	–	greater activity than the standard	–	–	224	68%	–	67%	–
C=COCC(=O)[C@@]1(OC(C)=O)CCC2C3CCC4=CC(=O)CCC4=C3C(c3ccc(N(C)C)cc3)C[C@@]21C (stereo partly drawn) [Compound 129, 17α-Acetoxy-11β-[4-(N,N-dimethylamino)phenyl]-21-(1′-ethenyloxy)-19-norpregna-4,9-diene-3,20-dione]	–	greater activity than the standard	–	–	303	155%	binding affinities greater than that observed for the standard	20%	low binding affinity
CSc1ccc([C@H]2C[C@@]3(C)[C@@H](CC[C@]3(OC(C)=O)C(C)=O)[C@@H]3CCC4=CC(=O)CCC4=C32)cc1 [Compound 74]	–	–	–	–	<10	131%	–	32%	–
CCC(=O)OCC(=O)[C@@]1(OC(C)=O)CCC2C3CCC4=CC(=O)CCC4=C3C(c3ccc(N(C)C)cc3)C[C@@]21C (stereo partly drawn) [Compound 126a, 17α-Acetoxy-11β-[4-(N,N-dimethylamino)phenyl]-21-propionyloxy-19-norpregna-4,9-diene-3,20-dione]	–	greater activity than the standard	–	–	170	95%	–	43%	–
CC(=O)O[C@]1(C(=O)COC(=O)CN(C)C)CC[C@H]2[C@@H]3CCC4=CC(=O)CCC4=C3[C@@H](c3ccc(N(C)C)cc3)C[C@@]21C [Compound 133, 17α-Acetoxy-1-[4-(N,N-dimethylamino)phenyl]-21-(2′-N,N-dimethylamino)acetoxy-19-norpregna-4,9-diene-3,20-dione]	–	–	–	–	95	82%	–	13%	–
